Reference: patent publication US9801940B2, “Oral care compositions” (Colgate-Palmolive Company, priority 2010, dated 2017)

tested on: representative oral bacteria S. mutans, F. nucleatum, V. parvula, A. naslundii, P. gingivitis; test: Bactericidal properties in in vitro tests; format: cell-based
Excerpt: As referred to herein, the expressions “extract of magnolia” or “magnolia extract” denote an extract from dried cortex, or bark, of a plant from the Magnoliaceae family, such as Magnolia officinalis, (hereinafter “magnolia”), or a synthetic or semi-synthetic equivalent of such an extract or an active component thereof. […] In other embodiments, the oral composition comprises an extract of magnolia. […] It should be noted that any plant from the Magnoliaceae family is suitable for extracting the active ingredients used in the present embodiment.

Row | SMILES | bactericidal properties against representative oral bacteria
1 | CCCc1ccc(O)c(-c2ccc(O)c(CCC)c2)c1 [tetrahydrohonokiol, 3′,5-dipropylbiphenyl-2,4′-diol] | demonstrated bactericidal properties
2 | CCCc1ccc(O)c(-c2cc(CCC)ccc2O)c1 [tetrahydromagnolol, 5,5′-dipropylbiphenyl-2,2′-diol] | demonstrated bactericidal properties
3 | C=CCc1ccc(O)c(-c2ccc(O)c(CC=C)c2)c1 [honokiol] | demonstrated bactericidal properties
4 | C=CCc1ccc(O)c(-c2cc(CC=C)ccc2O)c1 [magnolol] | demonstrated bactericidal properties
